Legend:
[1] = molecular target: T1, PPARG/RXRA LBD heterodimer (Homo sapiens, UniProt P37231); test: PPARγ-NCOR1 recruitment assay (TR-FRET, biotinylated NCOR1 ID2 peptide); type: biochemical; settings: 80 nM Rosiglitazone, 3 hours, read-out: PPARG-NCOR recruitment assay EC50
T1 construct: His-TEV-Q203-Y477; Uniprot ID P37231-2; made in house; host or cells: E. coli
Method in brief: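 2 nM each of E. coli-expressed PPARG LBD (Q203-Y477) and RXRA LBD (WT or S427F, E228-T462) with biotinylated NCOR1 ID2 peptide, incubated 3 h; TR-FRET read at Ex/Em 615/665. Ratios normalized to DMSO (0%) and T0070907 maximum (100%) for EC50 and maximal recruitment.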
T1 sequence (O75376 2251-2273 partner, one chain of several): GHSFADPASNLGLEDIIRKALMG

[2] = molecular target: T2, PPARG/RXRA LBD heterodimer (Homo sapiens, UniProt P37231); test: PPARγ-MED1 blockade assay (TR-FRET, biotinylated MED1 LxxLL peptide); type: biochemical; settings: WT PPARG LBD/WT RXRA LBD, 80 nM Rosiglitazone, 3 hours
T2 construct: His-TEV-Q203-Y477; Uniprot ID P37231-2; made in house; host or cells: E. coli
T2 sequence (P37231 203-477 isoform P37231-2): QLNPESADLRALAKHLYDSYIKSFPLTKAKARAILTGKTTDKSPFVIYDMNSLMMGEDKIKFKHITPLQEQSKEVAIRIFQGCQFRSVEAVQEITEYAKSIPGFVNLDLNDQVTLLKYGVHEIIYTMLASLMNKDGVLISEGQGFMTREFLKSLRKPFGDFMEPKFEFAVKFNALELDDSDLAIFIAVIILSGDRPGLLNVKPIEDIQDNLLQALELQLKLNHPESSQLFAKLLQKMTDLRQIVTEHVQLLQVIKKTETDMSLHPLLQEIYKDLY
T2 sequence (P19793 228-462 partner limits assumed): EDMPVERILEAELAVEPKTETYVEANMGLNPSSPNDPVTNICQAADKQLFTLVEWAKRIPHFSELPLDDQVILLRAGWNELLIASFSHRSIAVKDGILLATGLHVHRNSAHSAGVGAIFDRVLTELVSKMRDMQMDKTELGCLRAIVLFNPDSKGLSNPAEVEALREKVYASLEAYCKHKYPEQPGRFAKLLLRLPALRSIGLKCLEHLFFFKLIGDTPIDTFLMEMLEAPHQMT
Method in brief: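 TR-FRET measuring biotinylated MED1 LxxLL peptide association with 2 nM each His-PPARG LBD (Q203-Y477) and Flag-RXRA LBD (E228-T462), E. coli expressed. Read after 3 h incubation; ratios normalized to DMSO (0%) and GW9662 minimum (100%) for IC50 and maximal MED1 repulsion.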

[3] = test system: ANGPTL4, a PPARG target gene, in HT1197 (RXRA S427F mutation) cells; test: Bladder cancer pharmacodynamic assay, HT1197 cell assay (qPCR of ANGPTL4); type: cell-based; settings: Homo sapiens, 24 hours, 100 nM compound, relative to DMSO control
Method in brief: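 5637 (PPARG amplified) and HT1197 (RXRA S427F) cells treated 24 h with PPARG inverse agonists. FABP4 and ANGPTL4 expression measured by qPCR, normalised to TBP, and reported relative to DMSO control by ΔΔCt.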

SMILES	EC50 [1] [nM]	EC50 [2] [nM]	inhibition at 0.1 µM [3] [%]
N#Cc1ccc(Cl)c(-c2cc(=O)c3c(F)c(-c4ccnc(CO)c4)c(F)cc3[nH]2)c1 [Example 71, 4-chloro-3-(5,7-difluoro-6-(2-(hydroxymethyl)pyridin-4-yl)-4-oxo-1,4-dihydroquinolin-2-yl)benzonitrile]	1000 to 10000	1000 to 10000	51
COCCn1ccc(-c2c(F)cc3[nH]c(-c4cc(C#N)ccc4Cl)cc(=O)c3c2F)n1 [Example 72, 4-chloro-3-(5,7-difluoro-6-(1-(2-methoxyethyl)-1H-pyrazol-3-yl)-4-oxo-1,4-dihydroquinolin-2-yl)benzonitrile]	100 to 1000	100 to 1000	79
N#Cc1ccc(Cl)c(-c2cc(=O)c3c(F)c(-c4ccc(C(F)F)nc4)c(F)cc3[nH]2)c1 [Example 73, 4-chloro-3-(6-(6-(difluoromethyl)pyridin-3-yl)-5,7-difluoro-4-oxo-1,4-dihydroquinolin-2-yl)benzonitrile]	10 to 100	10 to 100	85
N#Cc1ccc(Cl)c(-c2cc(=O)c3c(F)c(-c4cccc(C(=O)O)c4)c(F)cc3[nH]2)c1 [Example 74, 3-(2-(2-chloro-5-cyanophenyl)-5,7-difluoro-4-oxo-1,4-dihydroquinolin-6-yl)benzoic acid]	100 to 1000	100 to 1000	12
N#Cc1ccc(Cl)c(-c2cc(=O)c3c(F)c(-c4ccc(C(=O)O)cc4)c(F)cc3[nH]2)c1 [Example 75, 4-(2-(2-chloro-5-cyanophenyl)-5,7-difluoro-4-oxo-1,4-dihydroquinolin-6-yl)benzoic acid]	1000 to 10000	1000 to 10000	20
N#Cc1ccc(Cl)c(-c2cc(=O)c3c(F)c(-c4ccc(CC(=O)O)cc4)c(F)cc3[nH]2)c1 [Example 76, 2-(4-(2-(2-chloro-5-cyanophenyl)-5,7-difluoro-4-oxo-1,4-dihydroquinolin-6-yl)phenyl)acetic acid]	100 to 1000	100 to 1000	39
N#Cc1ccc(Cl)c(-c2cc(=O)c3c(F)c(CCC(=O)O)c(F)cc3[nH]2)c1 [Example 77, 3-(2-(2-chloro-5-cyanophenyl)-5,7-difluoro-4-oxo-1,4-dihydroquinolin-6-yl)propanoic acid]	1000 to 10000	1000 to 10000	44
CNC(=O)c1cccc(-c2c(F)cc3[nH]c(-c4cc(C#N)ccc4Cl)cc(=O)c3c2F)c1 [Example 78, 3-(2-(2-chloro-5-cyanophenyl)-5,7-difluoro-4-oxo-1,4-dihydroquinolin-6-yl)-N-methylbenzamide]	100 to 1000	100 to 1000	36
CNC(=O)c1ccc(-c2c(F)cc3[nH]c(-c4cc(C#N)ccc4Cl)cc(=O)c3c2F)cc1 [Example 79, 4-(2-(2-chloro-5-cyanophenyl)-5,7-difluoro-4-oxo-1,4-dihydroquinolin-6-yl)-N-methylbenzamide]	100 to 1000	100 to 1000	58
CNC(=O)Cc1ccc(-c2c(F)cc3[nH]c(-c4cc(C#N)ccc4Cl)cc(=O)c3c2F)cc1 [Example 80, 2-(4-(2-(2-chloro-5-cyanophenyl)-5,7-difluoro-4-oxo-1,4-dihydroquinolin-6-yl)phenyl)-N-methylacetamide]	100 to 1000	100 to 1000	47
CNC(=O)CCc1c(F)cc2[nH]c(-c3cc(C#N)ccc3Cl)cc(=O)c2c1F [Example 81, 3-(2-(2-chloro-5-cyanophenyl)-5,7-difluoro-4-oxo-1,4-dihydroquinolin-6-yl)-N-methylpropanamide]	1000 to 10000	> 10000	46
CN(C)C(=O)c1cc(-c2c(F)cc3[nH]c(-c4cc(C#N)ccc4Cl)cc(=O)c3c2F)ccc1F [Example 82, 5-(2-(2-chloro-5-cyanophenyl)-5,7-difluoro-4-oxo-1,4-dihydroquinolin-6-yl)-2-fluoro-N,N-dimethylbenzamide]	100 to 1000	100 to 1000	70
CN(C)C(=O)c1c(F)ccc(-c2c(F)cc3[nH]c(-c4cc(C#N)ccc4Cl)cc(=O)c3c2F)c1F [Example 83, 3-(2-(2-chloro-5-cyanophenyl)-5,7-difluoro-4-oxo-1,4-dihydroquinolin-6-yl)-2,6-difluoro-N,N-dimethylbenzamide]	100 to 1000	100 to 1000	76
CN(C)C(=O)CCc1c(F)cc2[nH]c(-c3cc(C#N)ccc3Cl)cc(=O)c2c1F [Example 84, 3-(2-(2-chloro-5-cyanophenyl)-5,7-difluoro-4-oxo-1,4-dihydroquinolin-6-yl)-N,N-dimethylpropanamide]	1000 to 10000	1000 to 10000	67
CN(C)C(=O)c1cccc(-c2c(F)cc3[nH]c(-c4cc(C#N)ccc4Cl)cc(=O)c3c2F)n1 [Example 85, 6-(2-(2-chloro-5-cyanophenyl)-5,7-difluoro-4-oxo-1,4-dihydroquinolin-6-yl)-N,N-dimethylpicolinamide]	1000 to 10000	1000 to 10000	59
CN(C)C(=O)c1cc(-c2c(F)cc3[nH]c(-c4cc(C#N)ccc4Cl)cc(=O)c3c2F)cc(F)c1F [Example 86, 5-(2-(2-chloro-5-cyanophenyl)-5,7-difluoro-4-oxo-1,4-dihydroquinolin-6-yl)-2,3-difluoro-N,N-dimethylbenzamide]	100 to 1000	100 to 1000	75
CN(C)C(=O)c1cc(-c2c(F)cc3[nH]c(-c4cc(C#N)ccc4Cl)cc(=O)c3c2F)c(F)cc1F [Example 87, 5-(2-(2-chloro-5-cyanophenyl)-5,7-difluoro-4-oxo-1,4-dihydroquinolin-6-yl)-2,4-difluoro-N,N-dimethylbenzamide]	100 to 1000	100 to 1000	75
CN(C)C(=O)c1cc(-c2c(F)cc3[nH]c(-c4cc(C#N)ccc4Cl)cc(=O)c3c2F)ccn1 [Example 88, 4-(2-(2-chloro-5-cyanophenyl)-5,7-difluoro-4-oxo-1,4-dihydroquinolin-6-yl)-N,N-dimethylpicolinamide]	1000 to 10000	> 10000	41
CN(C)C(=O)c1cc(-c2c(F)cc3[nH]c(-c4cc(C#N)ccc4Cl)cc(=O)c3c2F)ccc1C(F)(F)F [Example 89, 5-(2-(2-chloro-5-cyanophenyl)-5,7-difluoro-4-oxo-1,4-dihydroquinolin-6-yl)-N,N-dimethyl-2-(trifluoromethyl)benzamide]	100 to 1000	100 to 1000	56
N#Cc1ccc(Cl)c(-c2cc(=O)c3c(F)c(C(O)CO)c(F)cc3[nH]2)c1 (stereo not drawn) [Example 90, 4-chloro-3-(6-(1,2-dihydroxyethyl)-5,7-difluoro-4-oxo-1,4-dihdroquinolin-2-yl)benzonitrile]	1000 to 10000	> 10000	0
N#Cc1ccc(Cl)c(-c2cc(=O)c3c(F)c(-c4ccn(CC(O)CO)n4)c(F)cc3[nH]2)c1 (stereo not drawn) [Example 92, 4-chloro-3-(6-(1-(2,3-dihydroxypropyl)-1H-pyrazol-3-yl)-5,7-difluoro-4-oxo-1,4-dihydroquinolin-2-yl)benzonitrile]	100 to 1000	100 to 1000	24

Source: US20240166624A1, “PPARG INVERSE AGONISTS AND USES THEREOF” (Flare Therapeutics Inc., priority 2021, published 2024)
